Assay results taken from publication PMC3384297 (2012).

What was measured:
Assay in all cases: FRET melting
[1] = test system: F21D (DNA, G4) GGGTTAGGGTTAGGGTTAGGG; details: 5 mM K+, 95 mM Li+; 10 mM lithium cacodylate pH 7.2; 0.2 µM DNA, 1 µM porphyrin
[2] = test system: FGD (DNA, G4) GGGTGTGGGTGTGGGTGTGGG; details: 5 mM K+, 95 mM Li+; 10 mM lithium cacodylate pH 7.2; 0.2 µM DNA, 1 µM porphyrin
[3] = test system: FGD (DNA, G4) GGGTGTGGGTGTGGGTGTGGG; details: 5 mM K+, 95 mM Li+; 10 mM Li cacodylate pH 7.2; 0.2 µM DNA, 1 µM NMM
[4] = test system: F21D (DNA, G4) GGGTTAGGGTTAGGGTTAGGG; details: 5 mM K+, 95 mM Li+; 10 mM Li cacodylate pH 7.2; 0.2 µM DNA, 1 µM NMM

## C=CC1=C(C)c2cc3[nH]c(cc4nc(cc5[nH]c(cc1n2)c(C)c5CCC(=O)O)C(CCC(=O)O)=C4C)c(C)c3C=C
[1]
  ΔT1/2: 0.2 ± 0.3 °C
[2]
  ΔT1/2: 0.2 ± 0.3 °C

## C=Cc1c(C)c2cc3c(C=C)c(C)c(cc4nc(cc5nc(cc1[nH]2)C(C)=C5CCC(=O)O)C(CCC(=O)O)=C4C)n3C
[1]
  ΔT1/2: 8.5 ± 0.6 °C
[2]
  ΔT1/2: 9.8 ± 0.3 °C

## CCC1=C(C)c2cc3[nH]c(cc4nc(cc5[nH]c(cc1n2)c(C)c5CC)C(C)=C4CCC(=O)O)c(CCC(=O)O)c3C
[1]
  ΔT1/2: 0.2 ± 0.3 °C
[2]
  ΔT1/2: 0.8 ± 0.3 °C

## CCc1c(C)c2cc3nc(cc4nc(cc5c(CC)c(C)c(cc1[nH]2)n5C)C(C)=C4CCC(=O)O)C(CCC(=O)O)=C3C
[3]
  ΔT1/2: 12.5 ± 0.3 °C
[4]
  ΔT1/2: 14 ± 2 °C

## C[n+]1ccc(-c2c3nc(c(-c4cc[n+](C)cc4)c4ccc([n-]4)c(-c4cc[n+](C)cc4)c4nc(c(-c5cc[n+](C)cc5)c5ccc2[n-]5)C=C4)C=C3)cc1.[Zn+2]
[1]
  ΔT1/2: 23 ± 1 °C
[2]
  ΔT1/2: 22.1 ± 0.9 °C

## C[n+]1ccc(-c2c3nc(c(-c4cc[n+](C)cc4)c4ccc([nH]4)c(-c4cc[n+](C)cc4)c4nc(c(-c5cc[n+](C)cc5)c5ccc2[nH]5)C=C4)C=C3)cc1
[1]
  ΔT1/2: 34 ± 2 °C
[2]
  ΔT1/2: 31 ± 2 °C
